US9144239B2, “Macrocyclic picolinamides as fungicides” (DOW AGROSCIENCES LLC, priority 2012, dated 2015)

CCCO[C@H]1[C@H](C)OC(=O)[C@@H](N)COC[C@@H]1Oc1ccccc1.Cl showed a melting point of 217 to 219 °C.
COc1ccc(O[C@H]2COC[C@H](N)C(=O)O[C@@H](C)[C@@H]2OC(=O)C(C)C)cc1.Cl showed a melting point of 197 to 198 °C.
For C=C(C)CO[C@@H]1[C@@H](OCC(=C)C)COC[C@H](NC(=O)OCc2ccccc2)C(=O)O[C@H]1CC [Compound 88, benzyl ((3S,7S,8S,9S)-9-ethyl-7,8-bis((2-methylallyl)oxy)-2-oxo-1,5-dioxonan-3-yl)carbamate], the melting point was 108 to 110 °C.
Work on C[C@@H]1OC(=O)[C@@H](NC(=O)OC(C)(C)C)COC[C@H](OCc2ccccc2)[C@H]1OCc1ccccc1 [Compound 93, tert-butyl ((3S,7S,8S,9S)-7,8-bis(benzyloxy)-9-methyl-2-oxo-1,5-dioxonan-3-yl)carbamate] yielded a melting point of 69 to 71 °C.
CCCCO[C@H]1[C@H](C)OC(=O)[C@@H](NC(=O)OC(C)(C)C)COC[C@@H]1OCc1ccccc1 [Compound 99] gave a melting point of 51 to 54 °C.
Work on CCCCO[C@H]1COC[C@H](NC(=O)OC(C)(C)C)C(=O)O[C@@H](C)[C@@H]1OC(=O)C(C)C [Compound 113, (3S,6S,7S,8S)-8-butoxy-3-((tert-butoxycarbonyl)amino)-6-methyl-4-oxo-1,5-dioxonan-7-yl isobutyrate] yielded a melting point of 69 to 71 °C.
C=C(C)CO[C@H]1[C@H](C)OC(=O)[C@@H](NC(=O)OCc2ccccc2)COC[C@@H]1OCC(=C)C [Compound 126, benzyl (3S,7S,8S,9S)-9-methyl-7,8-bis(2-methylallyloxy)-2-oxo-1,5-dioxonan-3-ylcarbamate] gave a melting point of 90 to 91 °C.
C=C(C)CO[C@H]1[C@H](C)OC[C@H](NC(=O)OCc2ccccc2)C(=O)OC[C@@H]1OCC(=C)C [Compound 127] showed a melting point of 79 to 81 °C.
Molecule CC(C)CO[C@H]1[C@H](C)OC(=O)[C@@H](N)COC[C@@H]1OCC(C)C [Compound 160, (3S,7S,8S,9S)-3-amino-7,8-diisobutoxy-9-methyl-1,5-dioxonan-2-one] has a melting point of 144 to 146 °C.
Work on C=C(C)CO[C@H]1COC[C@H](NC(=O)OCc2ccccc2)C(=O)OC[C@@H]1OCC(=C)C [Compound 186] yielded a melting point of 66 to 68 °C.
COc1ccnc(C(=O)N[C@H]2COC[C@H](OCCC(C)C)[C@@H](OCCC(C)C)[C@H](C)OC2=O)c1O [Compound 210, N-((3S,7S,8S,9S)-7,8-bis(isopentyloxy)-9-methyl-2-oxo-1,5-dioxonan-3-yl)-3-hydroxy-4-methoxypicolinamide] showed a melting point of 61 to 70 °C.
In the case of CC(C)CO[C@H]1[C@H](C)OC(=O)[C@@H](N(C(=O)OC(C)(C)C)C(=O)OC(C)(C)C)COC[C@@H]1Oc1ccc(F)cc1 [Compound 246], the melting point is reported as 108 °C.
For C[C@@H]1OC(=O)[C@@H](N(C(=O)OC(C)(C)C)C(=O)OC(C)(C)C)COC[C@H](O)[C@H]1Oc1ccccc1 [Compound 249], the melting point was 110 to 112 °C.
